In ChEMBL document CHEMBL1201862, “PubChem BioAssay data set” (2004):
“And” between values parts separate entries of the source, which are not always exact repeats. Equal values may be shown once. The source made the active and inactive calls. Cut-off read from the data, not from the text of the source, for most assays here: actives have a measured EC50 and inactives only a lower limit.

Experiments:
CHO = assay: cytotoxicity in TLR9-MyD88 CHO cells, dose response, cytotoxicity control for TLR9-MyD88 binding inhibitor project, cell-based, luminescence (AID 588339); type: functional, hamster; details: Cricetulus griseus;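 note: CHO cells stably coexpressing TLR9 and MyD88 fusions from primary screen; compound exposure lasted 48 hours before viability readout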
[1] = C. albicans growth with fluconazole, confirmation, fluorescence, retest (AID 2467); type: functional, cell-based
[2] = target: Heat shock protein HSP 90-alpha (Homo sapiens, UniProt P07900); type: functional, organism-based
Streptococcus = assay: Group A Streptococcus viability loss, dose response, counter-screen for streptokinase expression inhibitor project, luminescence, BacTiterGlo (AID 1915); type: functional, organism-based;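 note: potency for reduction of bacterial viability or growth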
[3] = tested on: Streptococcus sp. 'group A'; assay: growth inhibition of control SK(-) GAS strain, dose response, counter-screen for streptokinase expression inhibitor project, luminescence, kanamycin, BacTiterGlo, confirmation (AID 1900); type: functional, organism-based
Streptokinase A = target: T1, Streptokinase A (Streptococcus pyogenes serotype M1, UniProt P10520); assay: S. pyogenes streptokinase expression inhibitors, potency, dose response, plasminogen activation absorbance, OD405 (AID 1914); type: functional, Streptococcus pyogenes M1 GAS;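 note: secreted streptokinase activity via plasminogen activation per viability signal from cell pellet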
T1 sequence (P10520 whole entry): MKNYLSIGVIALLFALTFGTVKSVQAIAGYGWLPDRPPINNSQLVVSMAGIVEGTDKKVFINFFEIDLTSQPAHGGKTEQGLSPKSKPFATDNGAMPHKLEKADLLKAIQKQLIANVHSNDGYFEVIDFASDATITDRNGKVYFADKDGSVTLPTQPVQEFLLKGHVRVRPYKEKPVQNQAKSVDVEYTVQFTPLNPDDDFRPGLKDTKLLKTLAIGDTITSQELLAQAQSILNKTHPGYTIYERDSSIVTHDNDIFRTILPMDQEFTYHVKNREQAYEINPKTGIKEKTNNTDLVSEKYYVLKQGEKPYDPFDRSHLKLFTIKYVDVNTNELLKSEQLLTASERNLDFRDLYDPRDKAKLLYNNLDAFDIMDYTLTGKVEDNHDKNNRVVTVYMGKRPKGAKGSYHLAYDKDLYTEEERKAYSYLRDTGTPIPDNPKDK

[4] = target: T2, Histone-lysine N-methyltransferase NSD2 (Homo sapiens, UniProt O96028); type: biochemical
T2 sequence (O96028 whole entry): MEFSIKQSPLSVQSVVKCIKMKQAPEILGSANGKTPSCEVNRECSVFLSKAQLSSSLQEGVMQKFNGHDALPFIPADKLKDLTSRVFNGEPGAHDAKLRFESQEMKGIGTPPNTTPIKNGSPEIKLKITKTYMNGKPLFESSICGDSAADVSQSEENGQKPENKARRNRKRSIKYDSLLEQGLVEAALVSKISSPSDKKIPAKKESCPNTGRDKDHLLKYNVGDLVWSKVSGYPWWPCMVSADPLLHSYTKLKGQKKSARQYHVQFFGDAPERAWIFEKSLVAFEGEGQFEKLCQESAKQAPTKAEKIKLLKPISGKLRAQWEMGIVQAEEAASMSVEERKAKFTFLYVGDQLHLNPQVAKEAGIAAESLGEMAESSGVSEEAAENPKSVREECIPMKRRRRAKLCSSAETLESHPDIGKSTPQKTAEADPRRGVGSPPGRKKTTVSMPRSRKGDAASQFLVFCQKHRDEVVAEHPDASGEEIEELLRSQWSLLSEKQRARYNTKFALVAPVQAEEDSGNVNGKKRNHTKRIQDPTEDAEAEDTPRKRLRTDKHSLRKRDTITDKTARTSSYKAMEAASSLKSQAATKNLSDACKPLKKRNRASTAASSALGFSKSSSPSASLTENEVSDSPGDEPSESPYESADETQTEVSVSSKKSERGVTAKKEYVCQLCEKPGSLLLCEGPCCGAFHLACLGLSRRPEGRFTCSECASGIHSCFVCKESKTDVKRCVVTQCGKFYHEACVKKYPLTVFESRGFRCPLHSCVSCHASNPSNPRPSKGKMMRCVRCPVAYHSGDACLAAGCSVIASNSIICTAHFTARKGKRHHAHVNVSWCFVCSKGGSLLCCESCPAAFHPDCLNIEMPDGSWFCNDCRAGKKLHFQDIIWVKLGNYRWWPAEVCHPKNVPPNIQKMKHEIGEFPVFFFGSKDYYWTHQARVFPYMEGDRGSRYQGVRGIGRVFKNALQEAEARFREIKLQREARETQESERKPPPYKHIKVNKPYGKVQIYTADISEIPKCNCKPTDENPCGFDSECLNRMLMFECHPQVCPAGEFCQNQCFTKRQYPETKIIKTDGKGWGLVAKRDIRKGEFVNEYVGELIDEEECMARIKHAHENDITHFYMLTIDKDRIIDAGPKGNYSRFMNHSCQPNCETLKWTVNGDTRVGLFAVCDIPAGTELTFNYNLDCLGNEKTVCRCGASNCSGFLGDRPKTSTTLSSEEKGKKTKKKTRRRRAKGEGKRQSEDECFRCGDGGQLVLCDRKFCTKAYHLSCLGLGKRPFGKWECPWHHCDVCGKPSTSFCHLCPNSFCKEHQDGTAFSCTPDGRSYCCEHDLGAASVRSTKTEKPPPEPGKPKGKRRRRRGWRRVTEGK

Compound	IC50 (CHO)	EC50 [1]	AC50 [2]	EC50 (Streptococcus; Streptococcus)	EC50 ([3]; Streptococcus sp. 'group A')	EC50 (Streptokinase A)	AC50 [4]	EC50 (Streptococcus)	EC50 [3]
O=C(Nc1ccccc1Cl)/C(Cl)=C(\Cl)[S+]([O-])c1ccccc1 (stereo not given)	1180 nM (active)	> 38000 nM (not active)	< 195 nM (active)	5140 nM (active)	1530 nM (active)	331 nM (active)			
Cc1ccc(C)c(S(=O)(=O)/N=C2\C=C(NS(=O)(=O)c3ccccc3)C(=O)c3ccccc32)c1							> 20000 nM (inactive)		
CCCCCCCCCCCCCCCCn1cc[n+](C)c1		1740 nM (active)	3480 nM (active)	8540 nM (active)	1720 nM (active)	5.97 µM (active) and > 150 µM (not active)		4640 nM (active)	1970 nM (active)
O=C(NC1(O)C(=O)c2ccccc2C1=O)c1ccccc1							6870 nM (active)		
